Laboratory results from ChEMBL document CHEMBL1138162, “Phenyl ureas of creatinine as mGluR5 antagonists. A structure-activity relationship study of fenobam analogues” (Bioorg Med Chem Lett, 2006).

Assays:
[1] = molecular target: Metabotropic glutamate receptor 5 (Homo sapiens, UniProt P41594); test: Inhibition of glutamate-induced calcium influx in human mGluR5d by FLIPR; format: functional
[2] = molecular target: Metabotropic glutamate receptor 5 (Rattus norvegicus, UniProt P31424); test: Displacement of [3H]MPEP from mGluR5d in rat brain membrane; format: cell membranes
Rattus norvegicus = species: Rattus norvegicus; test: Clearance in rat; format: ADME, organism-based; details: in vivo
Homo sapiens = species: Homo sapiens; test: Clearance in human; format: ADME, organism-based; details: in vivo

Sequence of Metabotropic glutamate receptor 5 (Rattus norvegicus, UniProt P31424) (P31424 whole entry): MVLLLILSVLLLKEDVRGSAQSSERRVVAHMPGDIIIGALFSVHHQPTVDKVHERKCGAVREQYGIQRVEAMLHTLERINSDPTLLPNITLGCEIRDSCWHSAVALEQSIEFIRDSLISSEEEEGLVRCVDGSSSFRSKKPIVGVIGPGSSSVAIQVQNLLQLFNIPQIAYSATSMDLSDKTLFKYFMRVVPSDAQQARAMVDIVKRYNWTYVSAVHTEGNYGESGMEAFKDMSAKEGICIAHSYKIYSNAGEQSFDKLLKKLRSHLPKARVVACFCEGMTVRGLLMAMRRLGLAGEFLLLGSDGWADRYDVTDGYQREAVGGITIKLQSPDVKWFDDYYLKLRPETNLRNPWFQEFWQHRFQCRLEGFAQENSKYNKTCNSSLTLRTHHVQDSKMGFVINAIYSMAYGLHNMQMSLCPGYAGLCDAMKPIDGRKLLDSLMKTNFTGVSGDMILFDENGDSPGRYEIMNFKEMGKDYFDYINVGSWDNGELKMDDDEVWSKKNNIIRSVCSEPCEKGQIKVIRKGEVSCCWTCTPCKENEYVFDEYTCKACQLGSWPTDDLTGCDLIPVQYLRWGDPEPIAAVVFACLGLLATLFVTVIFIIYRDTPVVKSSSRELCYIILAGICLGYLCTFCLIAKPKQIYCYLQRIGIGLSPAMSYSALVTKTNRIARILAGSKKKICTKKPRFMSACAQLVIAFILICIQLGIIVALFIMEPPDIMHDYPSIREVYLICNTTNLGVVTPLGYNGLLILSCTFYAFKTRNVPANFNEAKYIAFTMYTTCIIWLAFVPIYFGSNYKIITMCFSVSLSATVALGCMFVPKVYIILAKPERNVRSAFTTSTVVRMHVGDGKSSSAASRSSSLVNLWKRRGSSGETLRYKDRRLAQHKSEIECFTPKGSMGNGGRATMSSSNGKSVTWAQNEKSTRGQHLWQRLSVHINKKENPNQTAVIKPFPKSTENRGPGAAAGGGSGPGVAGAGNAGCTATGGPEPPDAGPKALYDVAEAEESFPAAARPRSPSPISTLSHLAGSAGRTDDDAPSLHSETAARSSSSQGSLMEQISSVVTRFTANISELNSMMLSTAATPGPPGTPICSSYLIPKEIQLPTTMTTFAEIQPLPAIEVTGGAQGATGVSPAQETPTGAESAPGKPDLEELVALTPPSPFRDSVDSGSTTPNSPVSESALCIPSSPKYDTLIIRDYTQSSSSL
Sequence of Metabotropic glutamate receptor 5 (Homo sapiens, UniProt P41594) (P41594 whole entry): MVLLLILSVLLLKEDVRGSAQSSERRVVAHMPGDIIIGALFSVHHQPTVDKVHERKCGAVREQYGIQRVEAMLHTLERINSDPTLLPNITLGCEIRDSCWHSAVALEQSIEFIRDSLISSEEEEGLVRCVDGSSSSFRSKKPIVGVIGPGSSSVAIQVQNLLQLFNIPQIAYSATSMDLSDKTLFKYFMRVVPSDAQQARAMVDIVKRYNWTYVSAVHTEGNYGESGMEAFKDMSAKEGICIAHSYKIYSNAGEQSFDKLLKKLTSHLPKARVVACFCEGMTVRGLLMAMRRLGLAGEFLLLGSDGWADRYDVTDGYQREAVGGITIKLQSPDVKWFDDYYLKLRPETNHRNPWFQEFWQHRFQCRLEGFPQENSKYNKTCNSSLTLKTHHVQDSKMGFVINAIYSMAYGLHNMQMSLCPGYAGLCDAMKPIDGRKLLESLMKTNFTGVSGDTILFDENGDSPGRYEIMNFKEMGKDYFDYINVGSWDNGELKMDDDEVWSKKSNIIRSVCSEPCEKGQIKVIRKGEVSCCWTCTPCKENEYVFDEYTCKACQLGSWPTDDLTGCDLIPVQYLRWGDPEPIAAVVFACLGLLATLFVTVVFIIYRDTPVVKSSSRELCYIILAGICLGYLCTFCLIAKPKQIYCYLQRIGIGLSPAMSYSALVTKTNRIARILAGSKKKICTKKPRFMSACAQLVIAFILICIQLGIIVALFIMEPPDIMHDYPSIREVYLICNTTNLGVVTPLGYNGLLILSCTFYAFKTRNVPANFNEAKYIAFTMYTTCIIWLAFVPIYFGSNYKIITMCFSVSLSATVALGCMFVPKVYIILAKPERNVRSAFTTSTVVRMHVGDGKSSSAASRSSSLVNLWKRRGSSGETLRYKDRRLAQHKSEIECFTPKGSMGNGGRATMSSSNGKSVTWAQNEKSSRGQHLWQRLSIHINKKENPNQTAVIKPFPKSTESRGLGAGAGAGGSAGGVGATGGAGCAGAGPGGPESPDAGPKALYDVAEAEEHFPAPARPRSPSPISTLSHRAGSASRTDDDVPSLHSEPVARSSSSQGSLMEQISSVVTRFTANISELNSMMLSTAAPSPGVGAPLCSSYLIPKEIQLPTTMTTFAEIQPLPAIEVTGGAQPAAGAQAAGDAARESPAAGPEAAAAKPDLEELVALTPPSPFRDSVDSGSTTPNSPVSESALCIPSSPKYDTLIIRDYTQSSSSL

Row | SMILES | IC50 ([1]; read-out: IC50) [nM] | IC50 [2] [nM] | also measured
1 | CCN1C(NC(=O)Nc2cccc(Cl)c2)=NC(=O)C1C (stereo not given) | 410 | 320 | 
2 | CN1CC(=O)N=C1NC(=O)Cc1cccc(Cl)c1 |  |  | IC50 [1]: Not Active
3 | CN1C(=O)CN=C1NC(=O)Nc1cccc(Cl)c1 | > 10000 | > 10000 | 
4 | Cc1ccc(NC(=O)NC2=NC(=O)CN2C)nc1 | 3100 |  | 
5 | COc1cccc(NC(=O)NC2=NC(=O)CN2C)c1 | 2800 |  | 
6 | Cc1cccc(NC(=O)NC2=NC(=O)CN2C)c1 | 550 |  | 
7 | CN1CCS/C1=N\C(=O)Nc1cccc(Cl)c1 | 260 | 1200 | 
8 | CCCCCCNC(=O)NC1=NC(=O)CN1C | > 10000 |  | 
9 | CN1CC(=O)N/C1=N\C(=O)Nc1ccccc1 | 4900 |  | 
10 | CC1C(=O)N=C(NC(=O)Nc2cccc(Cl)c2)N1C (stereo not given) | 490 | 1300 | 
11 | O=C(NC1=NC(=O)C2CCCN12)Nc1cccc(Cl)c1 (stereo not given) | 800 | 1600 | 
12 | CN1CC(=O)N=C1NC(=O)Nc1cccc(Br)c1 | 380 |  | 
13 | CN1CC(=O)N=C1NC(=O)Nc1cccc(C#N)c1 | 3900 | 3400 | 
14 | O=C(NC1=NC(=O)C2CCCN12)Nc1ccccc1 (stereo not given) | 4200 |  | 
15 | Cc1cccc(C)c1NC(=O)/N=C1\CCCN1C [XILOBAM] | > 10000 |  | 
16 | Cn1ccnc1NC(=O)Nc1cccc(Cl)c1 | > 10000 | > 10000 | 

Row | SMILES | IC50 ([1]; read-out: IC50) [nM] | IC50 [2] [nM] | also measured
17 | CN1CC(=O)N=C1NC(=O)c1cccc(Cl)c1 | 2300 |  | 
18 | CN1CCC/C1=N\C(=O)Nc1cccc(Cl)c1 | 620 | 2000 | 
19 | Cc1ccc(C)c(NC(=O)NC2=NC(=O)C3CCCN23)c1 (stereo not given) | > 10000 |  | 
20 | CN1CC(=O)N=C1NC(=O)Nc1cccc(Cl)c1 [FENOBAM ANHYDROUS] | 330 | 460 | CL (Rattus norvegicus): 50 µL/min/mg; CL (Homo sapiens): 50 µL/min/mg
21 | COC(=O)c1cccc(NC(=O)NC2=NC(=O)CN2C)c1 | > 10000 |  | 
22 | Cc1cccc(NC(=O)NC2=NC(=O)C3CCCN23)c1C (stereo not given) | > 10000 |  | 
23 | CN1CC(=O)N=C1NC(=O)Nc1cc(Cl)cc(Cl)c1 | > 10000 |  | 
24 | O=C(NC1=NC(=O)C2CCCN12)Nc1ccc(Cl)cc1 (stereo not given) | > 10000 |  | 
25 | Cc1ccccc1NC(=O)NC1=NC(=O)C2CCCN12 (stereo not given) | > 10000 |  | 
26 | Cc1ccc(NC(=O)NC2=NC(=O)C3CCCN23)cc1Cl (stereo not given) | > 10000 |  | 
27 | CN1CC(=O)N=C1NC(=O)Nc1cccs1 | 4900 |  | 
28 | CCCCN1CC(=O)N=C1NC(=O)Nc1cccc(Cl)c1 | 680 | 1300 | 
29 | Cc1cccc(NC(=O)NC2=NC(=O)C(c3ccccc3)N2C)c1 (stereo not given) | 1400 | > 10000 | 
30 | CCN1CC(=O)N=C1NC(=O)Nc1cccc(Cl)c1 | 250 | 180 | 
31 | Cc1cccnc1NC(=O)NC1=NC(=O)CN1C | 1900 |  | 
